According to ChEMBL document CHEMBL2074403, “The solvents cremophor EL and Tween 80 modulate daunorubicin resistance in the multidrug resistant Ehrlich ascites tumor” (Cancer Commun, 1990):

Assays:
[1] = target: T1, ATP-dependent translocase ABCB1 (Homo sapiens, UniProt P08183); assay: TP_TRANSPORTER: inhibition of Daunorubicin efflux (Daunorubicin: 5 uM, Tween 80: 0.01 %(v/v)) in EHR2/DNR+ cells; type: functional, cell-based; settings: mouse
[2] = target: T1, ATP-dependent translocase ABCB1; assay: TP_TRANSPORTER: inhibition of Daunorubicin efflux (Daunorubicin: 5 uM, Cremophor EL: 0.01 %(v/v)) in EHR2/DNR+ cells; type: functional, cell-based; settings: mouse

T1 sequence (P08183 whole entry): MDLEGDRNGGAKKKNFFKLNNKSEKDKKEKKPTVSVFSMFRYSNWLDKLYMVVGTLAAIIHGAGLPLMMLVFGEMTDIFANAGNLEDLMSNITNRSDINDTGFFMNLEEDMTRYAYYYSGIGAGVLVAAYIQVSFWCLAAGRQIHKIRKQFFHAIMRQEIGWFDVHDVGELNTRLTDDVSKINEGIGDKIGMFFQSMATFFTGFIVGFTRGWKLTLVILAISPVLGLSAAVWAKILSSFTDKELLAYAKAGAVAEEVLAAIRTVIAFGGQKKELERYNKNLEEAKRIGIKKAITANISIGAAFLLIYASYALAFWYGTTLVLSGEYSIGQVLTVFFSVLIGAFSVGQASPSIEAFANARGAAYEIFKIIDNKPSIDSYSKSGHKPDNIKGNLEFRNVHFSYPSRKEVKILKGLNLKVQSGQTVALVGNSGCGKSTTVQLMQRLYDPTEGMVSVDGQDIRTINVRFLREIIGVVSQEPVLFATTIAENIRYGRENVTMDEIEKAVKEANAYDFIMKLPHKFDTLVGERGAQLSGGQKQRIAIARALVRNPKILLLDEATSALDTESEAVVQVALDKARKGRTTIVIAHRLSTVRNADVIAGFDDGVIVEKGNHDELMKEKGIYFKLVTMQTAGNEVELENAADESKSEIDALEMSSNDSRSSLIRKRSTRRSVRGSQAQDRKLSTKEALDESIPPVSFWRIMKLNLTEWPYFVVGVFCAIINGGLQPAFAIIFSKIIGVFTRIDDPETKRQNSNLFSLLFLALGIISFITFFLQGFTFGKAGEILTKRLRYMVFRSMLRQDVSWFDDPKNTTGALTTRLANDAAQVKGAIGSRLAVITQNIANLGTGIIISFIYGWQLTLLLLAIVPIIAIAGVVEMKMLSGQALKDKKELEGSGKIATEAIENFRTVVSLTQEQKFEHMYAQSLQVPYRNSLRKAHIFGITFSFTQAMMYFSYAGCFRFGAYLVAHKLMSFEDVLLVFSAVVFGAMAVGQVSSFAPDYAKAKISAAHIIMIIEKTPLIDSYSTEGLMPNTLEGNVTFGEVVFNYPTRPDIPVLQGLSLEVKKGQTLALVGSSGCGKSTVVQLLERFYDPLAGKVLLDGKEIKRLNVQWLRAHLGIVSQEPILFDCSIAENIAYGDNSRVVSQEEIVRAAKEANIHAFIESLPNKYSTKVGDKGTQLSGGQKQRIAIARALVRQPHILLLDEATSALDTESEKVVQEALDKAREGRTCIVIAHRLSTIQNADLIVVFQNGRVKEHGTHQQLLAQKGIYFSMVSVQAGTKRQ

Activity [1] | Activity [2] | Molecule
inhibitor [+] | – | CCCCCCCC/C=C\CCCCCCCC(=O)OCCOCC(OCCO)C1OCC(OCCO)C1OCCO (configuration not stated) [TWEEN 80]
– | inhibitor [+] | CREMOPHOR EL
